Reference: US20120196853A1, “Novel Quinoline-Hepcidine Antagonists” (VIFOR (INTERNATIONAL) AG, priority 2009, published 2012)

Molecular target: T1, human ferroportin (Fpn-HaloTag fusion protein) (Homo sapiens, UniProt Q9NP59)
T1 construct: expressed in transfected cells
T1 sequence (Q9NP59 1-571): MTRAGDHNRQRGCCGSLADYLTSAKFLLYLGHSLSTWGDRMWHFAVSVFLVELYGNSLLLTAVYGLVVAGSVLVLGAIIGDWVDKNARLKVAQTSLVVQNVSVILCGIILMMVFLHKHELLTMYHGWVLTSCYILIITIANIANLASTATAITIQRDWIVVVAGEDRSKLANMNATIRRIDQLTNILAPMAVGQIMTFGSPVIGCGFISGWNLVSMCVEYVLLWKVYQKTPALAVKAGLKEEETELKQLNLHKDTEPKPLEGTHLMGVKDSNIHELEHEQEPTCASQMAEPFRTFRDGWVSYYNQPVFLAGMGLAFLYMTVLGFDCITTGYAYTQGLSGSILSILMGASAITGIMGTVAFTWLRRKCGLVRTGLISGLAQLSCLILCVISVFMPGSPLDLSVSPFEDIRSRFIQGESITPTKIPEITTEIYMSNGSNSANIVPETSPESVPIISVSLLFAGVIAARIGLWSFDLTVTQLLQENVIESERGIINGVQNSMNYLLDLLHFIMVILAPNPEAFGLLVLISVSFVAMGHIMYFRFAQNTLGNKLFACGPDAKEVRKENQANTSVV
Assay: ferroportin internalization assay (inhibition of hepcidin-induced internalization of Fpn, MDCK-FPN-HaloTag cells)
Type: cell-based
Details: 100 nM hepcidin, overnight, dilution series 0.04 to 40 μM
Experimental: The hepcidin-antagonistic action of the quinoline compounds of the present invention was determined by means of the “ferroportin internalization assay” described in the following.
Organic compounds of low molecular weight which counteract the biological actions of hepcidin on its receptor, the iron exporter ferroportin (Fpn), were identified on the basis of their ability to inhibit hepcidin-induced internalization of Fpn in living cells. For this purpose, a stable cell line (Madin-Darby canine kidney, MDCK) was produced which constitutively expresses human ferroportin fused recombinantly at its C terminus with a fluorescent reporter protein (HaloTag®, Promega Corp.). The internalization of Fpn was monitored by labelling these cells with fluorescent ligands (HaloTag®-TMR, tetramethylrhodamine) which join covalently on to the HaloTag reporter gene fused with the Fpn. […] Optimized image analysis algorithms were used to ascertain the cell surface and to quantify the corresponding membrane fluorescence associated with the Fpn-HaloTag fusion protein. This assay allows a quantitative image-based analysis in order to quickly evaluate compounds which can block hepcidin-induced internalization of Fpn. This assay is a direct in vitro pendant of the in vivo action mechanism proposed for medicament candidates and is therefore suitable as an initial assay with a high throughput for identifying compounds which counteract the action of hepcidin on its receptor ferroportin.
• 7,500 cells per well (MDCK-FPN-HaloTag) were transinoculated in 50 μl DMEM medium (Dulbeccos modified Eagle medium with 10% foetal bovine serum (FBS), which contained 1% penicillin, 1% streptomycin and 450 μg/ml of G-418) in microtitre plates with 384 wells, (384 Cell carrier plates, Perkin Elmer, cat. no. 6007430), followed by incubation overnight at 37° C./5% CO2. • The volume of the medium was reduced to 10 μl, and 10 μl of 5 μM HaloTag-TMR ligands (Promega, cat. no. G 8251) were added in DMEM medium in order to stain the Fpn-HaloTag fusion protein. • 15 min incubation at 37° C./5% CO2 • The HaloTag-TMR ligand was removed and the cells were washed with fresh DMEM medium and the volume was reduced to 20 μl of DMEM medium. • 3 μl per well of a solution of the test compound (dissolved DMSO) were added ([…]). • 7 μl of […] hepcidin (Peptides International, cat. no. PLP-4392-s, 100 μM stock solution diluted in water in DMEM medium) were added per well up to a final hepcidin concentration of 100 nM. • The cells were incubated overnight at 37° C./5% CO2. • The cells were fixed by adding paraformaldehyde (PFA, Electron Microscopy Sciences, cat. no. 15710-S) directly to the cells up to a final concentration of 4%, followed by incubation at room temperature for 15-20 minutes. • The PFA solution was removed and the cells were washed with PBS (phosphate-buffered saline solution), in each case 30 μl remaining in the plate. • 20 μl of Draq5 (Biostatus, cat. no. DR 51000) were added up to a final concentration of 2.5 μM in order to stain the cell nuclei, and the plates were sealed with a foil plate seal. • The plates were analysed with the Opera Plate Imager (Opera Confocal Plate Imager, Perkin Elmer) with 7 images per well; 440 ms exposure time per image, […] focal point height.

Structure (SMILES)	IC50 [µM]
Oc1c(C(c2cnccn2)N2CCOCC2)ccc2cccnc12 (stereo not shown) [Example 15, 7-(Morpholin-4-yl-pyrazin-2-yl-methyl)-quinolin-8-ol]	< 50
NC(=O)c1ccc(C(c2ccc3cccnc3c2O)N2CCOCC2)cc1 (stereo not shown) [Example 24, 4-[(8-Hydroxy-quinolin-7-yl)-morpholin-4-yl-methyl]-benzamide]	< 50
CCOC(=O)N1CCN(C(c2ccccn2)c2ccc3cccnc3c2O)CC1 (stereo not shown) [Example 26, 4-[(8-Hydroxy-quinolin-7-yl)-pyridin-2-yl-methyl]-piperazine-1-carboxylic acid ethyl ester]	< 50
Oc1c(C(c2ccccn2)N2CCOCC2)cc(Cl)c2cccnc12 (stereo not shown) [Example 25, 5-Chloro-7-(morpholin-4-yl-pyridin-2-yl-methyl)-quinolin-8-ol]	< 50
